Experimental data as given in the NIST ThermoML archive (doi:10.1021/acs.jced.6b00290).
± gives the expanded uncertainty stated by the source.

Assay: refractive index (Na D-line) (dimensionless); wn = mass fraction of the nth substance listed
Settings: 333.15 K, 100 kPa, Liquid, Standard Abbe refractometry

refractive index (w1 = 0.5241)	refractive index (w1 = 0.3525)	Compound
1.4594 ± 0.0004	–	[Br-].[Br-].[Mg+2] [magnesium bromide (MgBr2)] + O
–	1.3957 ± 0.0004	O=S(=O)([O-])[O-].[Mg+2] [magnesium sulfate] + O
